# Test results reported in patent publication US20260365682A1, “MODULATORS OF TNF-ALPHA ACTIVITY” (Forward Therapeutics, Inc., priority 2022, published 2026).
# Biological target: T1, TNF-α (Homo sapiens, UniProt P01375)
# T1 construct: purchased R&D 210-TA-020/CF
# Assay: TNF-α Induced HEK Blue Cellular Assay (secreted alkaline phosphatase expression, QUANTI-Blue)
# Assay type: cell-based
# Conditions: HEK Blue TNFα reporter cells; TNF-α 100 μg/ml; 24 hrs at 37° C.; inhibition of secreted alkaline phosphatase; read-out: IC50 value
# Procedure: TNF-α Induced HEK Blue Cellular Assay
# Test articles were diluted in DMSO and serially diluted into 384 well assay plate (Corning 3765), at final concentrations ranging from […] to 0.5 nM. HEK Blue™ TNFα reporter cells were added at a final density of 10,000 cell per well in assay media [DMEM (Gibco, cat #21063-029), 10% fetal bovine serum (ExcelBio, cat #FND500), 1% Penicillin-Streptomycin (Solarbio, cat #P1400-100]. TNF-α (R&D 210-TA-020/CF) was then added to the assay plate at a final concentration of […]. This plate was then incubated for 24 hrs at 37° C. and 5% CO2. Secreted alkaline phosphatase expression was then measured using QUANTI-Blue™ (Invivogen), according to manufacturer instructions and read on an Envision microplate reader at 620 nm.
# Inhibition data for test compound over a range of concentration was plotted as percentage inhibition of the test compound (100%=maximum inhibition). IC50 values were determined after correcting for background [(sample read-mean of low control)/(mean of high control-mean of low control)] whereby the low control is DMSO without stimulation and high control is DMSO with stimulation. The IC50 is defined as the concentration of test compound which produces 50% inhibition and was quantified using the 4 parameter logistic equation to fit the data.
# T1 sequence (P01375 77-233 limits assumed): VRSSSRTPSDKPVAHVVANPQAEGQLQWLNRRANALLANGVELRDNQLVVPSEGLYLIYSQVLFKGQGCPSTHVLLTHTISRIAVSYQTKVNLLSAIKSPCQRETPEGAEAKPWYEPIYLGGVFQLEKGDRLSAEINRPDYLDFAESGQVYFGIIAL
row,SMILES,IC50
1,"[2H]C([2H])([2H])N1C(=O)c2cccc(OC(F)F)c2[C@H]2C[C@@H]1c1nc3ccc(C#CC4CN(C5COC5)C4C)cc3n12 (single isomer, unassigned) [Example 258, (7R,14R)-1-(difluoromethoxy)-6-(methyl-d3)-11-(((2R or 2S)-2-methyl-1-(oxetan-3-yl)azetidin-3-yl)ethynyl)-6,7-dihydro-7,14-methanobenzo[f]benzo[4,5]imidazo[1,2-a][1,4]diazocin-5(14H)-one]",< 100 nM
2,"[2H]C([2H])([2H])N1C(=O)c2cccc(OC(F)F)c2[C@H]2C[C@@H]1c1nc3ccc(C#CC4CCCO4)cc3n12 (stereo partly drawn) [Example 53, (7R,14R)-1-(difluoromethoxy)-6-(methyl-d3)-11-((tetrahydrofuran-2-yl)ethynyl)-6,7-dihydro-7,14-methanobenzo[f]benzo[4,5]imidazo[1,2-a][1,4]diazocin-5(14H)-one]",< 100 nM
3,"[2H]C([2H])([2H])N1C(=O)c2cccc(OC(F)F)c2[C@H]2C[C@@H]1c1nc3ccc(C#CCNC(C)(C)C)cc3n12 [Example 70, (7R,14R)-11-(3-(tert-butylamino)prop-1-yn-1-yl)-1-(difluoromethoxy)-6-(methyl-d3)-6,7-dihydro-7,14-methanobenzo[f]benzo[4,5]imidazo[1,2-a][1,4]diazocin-5(14H)-one]",10000 to 30000 nM
4,"[2H]C([2H])([2H])N1C(=O)c2cccc(OC(F)F)c2[C@H]2C[C@@H]1c1nc3ccc(C#CC4(CO)CC4)cc3n12 [Example 130, (7R,14R)-1-(difluoromethoxy)-11-((1-(hydroxymethyl)cyclopropyl)ethynyl)-6-(methyl-d3)-6,7-dihydro-7,14-methanobenzo[f]benzo[4,5]imidazo[1,2-a][1,4]diazocin-5(14H)-one]",100 to 1000 nM
5,"[2H]C([2H])([2H])N1C(=O)c2cccc(OC(F)F)c2[C@H]2C[C@@H]1c1nc3ccc(C#CCCCCO)cc3n12 [Example 92, (7R,14R)-1-(difluoromethoxy)-11-(6-hydroxyhex-1-yn-1-yl)-6-(methyl-d3)-6,7-dihydro-7,14-methanobenzo[f]benzo[4,5]imidazo[1,2-a][1,4]diazocin-5(14H)-one]",< 100 nM
6,"[2H]C([2H])([2H])N1C(=O)c2cccc(OC(F)F)c2[C@H]2C[C@@H]1c1nc3ccc(C#CC4CCN(C)CC4)cc3n12 [Example 57, (7R,14R)-1-(difluoromethoxy)-6-(methyl-d3)-11-((1-methylpiperidin-4-yl)ethynyl)-6,7-dihydro-7,14-methanobenzo[f]benzo[4,5]imidazo[1,2-a][1,4]diazocin-5(14H)-one]",100 to 1000 nM
7,"[2H]C([2H])([2H])N1C(=O)c2cccc(OC(F)F)c2[C@H]2C[C@@H]1c1nc3ccc(C#CCCN4CCC(F)(F)C4)cc3n12 [Example 226, (7R,14R)-1-(difluoromethoxy)-11-(4-(3,3-difluoropyrrolidin-1-yl)but-1-yn-1-yl)-6-(methyl-d3)-6,7-dihydro-7,14-methanobenzo[f]benzo[4,5]imidazo[1,2-a][1,4]diazocin-5(14H)-one]",< 100 nM
8,"[2H]C([2H])([2H])N1C(=O)c2cccc(OC(F)F)c2[C@H]2C[C@@H]1c1nc3ccc(C#CC4CN(C5CC5)C4)cc3n12 [Example 223, (7R,14R)-11-((1-cyclopropylazetidin-3-yl)ethynyl)-1-(difluoromethoxy)-6-(methyl-d3)-6,7-dihydro-7,14-methanobenzo[f]benzo[4,5]imidazo[1,2-a][1,4]diazocin-5(14H)-one]",100 to 1000 nM
9,"Cn1cc(C#Cc2ccc3nc4n(c3c2)[C@@H]2C[C@H]4NC(=O)c3cccc(OC(F)F)c32)cn1 [Example 2, (1R,11R)-18-(difluoromethoxy)-5-[2-(1-methylpyrazol-4-yl)ethynyl]-2,9,12-triazapentacyclo[9.8.1.0^∧{2,10}.0^∧{3,8}. 0^∧{14,19}]icosa-3(8),4,6,9,14(19),15,17-heptaen-13-one]",< 100 nM
10,"[2H]C([2H])([2H])N1C(=O)c2cccc(OC(F)F)c2[C@H]2C[C@@H]1c1nc3ccc(C#CC4CCN(C(=O)C5(O)CC5)CC4)cc3n12 [Example 187, (7R,14R)-1-(difluoromethoxy)-11-((1-(1-hydroxycyclopropane-1-carbonyl)piperidin-4-yl)ethynyl)-6-(methyl-d3)-6,7-dihydro-7,14-methanobenzo[f]benzo[4,5]imidazo[1,2-a][1,4]diazocin-5(14H)-one]",< 100 nM
11,"[2H]C([2H])([2H])N1C(=O)c2cccc(OC(F)F)c2[C@H]2C[C@@H]1c1nc3c(F)cc(C#CC)cc3n12 [Example 109, (7R,14R)-1-(difluoromethoxy)-9-fluoro-6-(methyl-d3)-11-(prop-1-yn-1-yl)-6,7-dihydro-7,14-methanobenzo[f]benzo[4,5]imidazo[1,2-a][1,4]diazocin-5(14H)-one]",100 to 1000 nM
12,"[2H]C([2H])([2H])N1C(=O)c2cccc(OC(F)F)c2[C@H]2C[C@@H]1c1nc3ccc(C#Cc4cn[nH]c4)cc3n12 [Example 14, (7R,14R)-11-((1H-pyrazol-4-yl)ethynyl)-1-(difluoromethoxy)-6-(methyl-d3)-6,7-dihydro-7,14-methanobenzo[f]benzo[4,5]imidazo[1,2-a][1,4]diazocin-5(14H)-one]",< 100 nM
13,"[2H]C([2H])([2H])N1C(=O)c2cccc(OC(F)F)c2[C@H]2C[C@@H]1c1nc3ccc(C#Cc4cncc(F)c4)cc3n12 [Example 31, (7R,14R)-1-(difluoromethoxy)-11-((5-fluoropyridin-3-yl)ethynyl)-6-(methyl-d3)-6,7-dihydro-7,14-methanobenzo[f]benzo[4,5]imidazo[1,2-a][1,4]diazocin-5(14H)-one]",< 100 nM
14,"[2H]C([2H])([2H])N1C(=O)c2cccc(OC(F)F)c2[C@H]2C[C@@H]1c1nc3ccc(C#CCCCC#N)cc3n12 [Example 86, 6-((7R,14R)-1-(difluoromethoxy)-6-(methyl-d3)-5-oxo-5,6,7,14-tetrahydro-7,14-methanobenzo[f]benzo[4,5]imidazo[1,2-a][1,4]diazocin-11-yl)hex-5-ynenitrile]",< 100 nM
15,"[2H]C([2H])([2H])N1C(=O)c2cccc(OC(F)F)c2[C@H]2C[C@@H]1c1nc3c(F)cc(C#CC4CC4)cc3n12 [Example 175, (7R,14R)-11-(cyclopropylethynyl)-1-(difluoromethoxy)-9-fluoro-6-(methyl-d3)-6,7-dihydro-7,14-methanobenzo[f]benzo[4,5]imidazo[1,2-a][1,4]diazocin-5(14H)-one]",< 100 nM
16,"[2H]C([2H])([2H])N1C(=O)c2cccc(OC(F)F)c2[C@H]2C[C@@H]1c1nc3ccc(C#CCCN4CC[C@H](F)C4)cc3n12 [Example 220, (7R,14R)-1-(difluoromethoxy)-11-(4-((S)-3-fluoropyrrolidin-1-yl)but-1-yn-1-yl)-6-(methyl-d3)-6,7-dihydro-7,14-methanobenzo[f]benzo[4,5]imidazo[1,2-a][1,4]diazocin-5(14H)-one]",< 100 nM

# Same assay, conditions: IC50 value, HEK Blue TNFα reporter cells; TNF-α 100 μg/ml; 24 hrs at 37° C.; inhibition of secreted alkaline phosphatase
row,SMILES,IC50
1,"[2H]C([2H])([2H])N1C(=O)c2cccc(OC(F)F)c2[C@H]2C[C@@H]1c1nc3ccc(C#CC(=O)OCC)cc3n12 [Example 40, ethyl 3-((7R,14R)-1-(difluoromethoxy)-6-(methyl-d3)-5-oxo-5,6,7,14-tetrahydro-7,14-methanobenzo[f]benzo[4,5]imidazo[1,2-a][1,4]diazocin-11-yl)propiolate]",< 100 nM
